Holding throughout (experiment): Combination study of Compound 1 with selinexor, ATPLite cell growth/viability, 9x9 dose matrix
Holding throughout (format): cell-based
Conditions in all cases: Compound 1 in combination with Selinexor, 72 hours
On the technique in general: Cellular ATP, detected with luciferase, serves as a proxy for viable cell number.

Experiment [1] concerns H9 cell line. The procedure: (§1) The synergistic effects of compounds provided herein and another therapeutic agent were carried out. The method is described as follows. Cells were thawed from a liquid nitrogen preserved state. Once cells were expanded and divided at their expected doubling times, screening began. Cells were seeded in growth media in either black 1536-well or 384-well tissue culture treated plates. Cells were then equilibrated in assay plates via centrifugation and placed in incubators attached to the Dosing Modules at 37° C. for 24 hours before treatment. […] These Tzero (To) plates were read using ultra-sensitive luminescence on Envision plate readers (Perkin Elmer). Treated assay plates were incubated with compound for 72 hours. After 72 hours, plates were developed for endpoint analysis using ATPLite. All data points were collected via automated processes, quality controlled and analyzed using Zalicus software. Assay plates were accepted if they passed the following quality control standards: relative luciferase values were consistent throughout the entire experiment, Z-factor scores were greater than 0.6, untreated/vehicle controls behaved consistently on the plate.
Inhibition (I) is defined as I=(1−T/V)*100% where T is treated cell count and V is untreated (vehicle) cell count (at 72 hours). I ranges from 0% (when T=V) to 100% (when T=0). The IC50 value is defined as the drug concentration needed to inhibit 50% of the cell growth compared to growth of the vehicle treated cells (the drug concentration which gives I=50%). The measure of effect in the experiment can be the inhibition of cellular response relative to the untreated level (vehicle alone). For untreated vehicle and treated levels V and T, a fractional inhibition I=1-T/V is calculated. […] When activity ratios (e.g., fold increase over stimulated control) are being used, the effect can be measured using an induction I=ln(T/V). […]
Growth Inhibition (GI) is used as a measure of cell viability. The cell viability of vehicle is measured at the time of dosing (TO) and after 72 hours (T72). A GI reading of 0% represents no growth inhibition—T72 compound-treated and T72 vehicle signals are matched. A GI reading of 100% represents complete growth inhibition—T72 compound-treated and TO vehicle signals are matched. […] A GI reading of 200% represents complete death of all cells in the culture well. […] GI is calculated by applying the following test and equation: […]
Combination analysis data were collected in a 9×9 dose matrix. Synergy was calculated by comparing a combination's response to those of its single compound, against the drug-with-itself dose-additive reference model. Deviations from dose additivity may be assessed visually on an isobologram or numerically with a Combination Index (CI). […]

Experiment [2] has as its system HH cell line. The method, then: as §1
(§2) Inhibition (I) is defined as I=(1−T/V)*100% where T is treated cell count and V is untreated (vehicle) cell count (at 72 hours). I ranges from 0% (when T=V) to 100% (when T=0). The IC50 value is defined as the drug concentration needed to inhibit 50% of the cell growth compared to growth of the vehicle treated cells (the drug concentration which gives I=50%). The measure of effect in the experiment can be the inhibition of cellular response relative to the untreated level (vehicle alone). For untreated vehicle and treated levels V and T, a fractional inhibition I=1-T/V is calculated. The inhibition ranges from 0% at the untreated level to 100% when T=0. Inhibition levels are negative for agents that actually increase levels. Other effect measures, such as an activity ratio r=T/V may be more appropriate for some assays. When activity ratios (e.g., fold increase over stimulated control) are being used, the effect can be measured using an induction I=ln(T/V). With this definition, all effect expressions are the same as for inhibition.
(§3) Growth Inhibition (GI) is used as a measure of cell viability. The cell viability of vehicle is measured at the time of dosing (TO) and after 72 hours (T72). A GI reading of 0% represents no growth inhibition—T72 compound-treated and T72 vehicle signals are matched. A GI reading of 100% represents complete growth inhibition—T72 compound-treated and TO vehicle signals are matched. […] A GI reading of 200% represents complete death of all cells in the culture well. Compounds reaching an activity plateau of GI 200% are considered cytotoxic. GI is calculated by applying the following test and equation:
(§4) [formula] [formula] where T is the signal measure for a test article, V is the vehicle-treated control measure, and Vo is the vehicle control measure at time zero. This formula is derived from the Growth Inhibition calculation used in the National Cancer Institute's NCI-60 high-throughput screen.
(§5) Combination analysis data were collected in a 9×9 dose matrix. Synergy was calculated by comparing a combination's response to those of its single compound, against the drug-with-itself dose-additive reference model. Deviations from dose additivity may be assessed visually on an isobologram or numerically with a Combination Index (CI). See the tables below for CI at 50% inhibition and CI at 50% growth inhibition. Additive effect is CI=1.0. Synergistic effect is CI<1. Antagonistic effect is CI>1.0.
(§6) To measure combination effects in excess of Loewe additivity, a scalar measure to characterize the strength of synergistic interaction termed the Synergy Score was devised. […]

For experiment [3], the system named is HuT 102 cell line. The method, then:
as §1, §2, §3, §4, §5, §6

The subject of experiment [4] is HuT 78 cell line. The procedure: as §1, §2, §3, §4, §5, §6
Experiment [5] concerns MJ (G11) cell line. The method, then: as §1, §2, §3, §4, §5, §6

As for `O=C(/C=C\n1cnc(-c2cc(C(F)(F)F)cc(C(F)(F)F)c2)n1)NNc1cnccn1` [Selinexor, (Z)-3-(3-(3,5-bis(trifluoromethyl)phenyl)-1H-1,2,4-triazol-1-yl)—N′-(pyrazin-2-yl)acrylohydrazide], the CI50 growth inhibition result is listed as “A3 (A3=>3)” in experiment [1], “A2 (A2=1 to <3)” in experiment [2], “A3 (A3=>3)” in experiment [4] and “A3 (A3=>3)” in experiment [5]. The CI50 inhibition result is “A3 (A3=>3)” in experiment [1]; “A2 (A2=1 to <3)” in experiment [2]; “A1 (A1=0.0001 to <1)” in experiment [3]; “A2 (A2=1 to <3)” in experiment [4]; “A2 (A2=1 to <3)” in experiment [5]. Also, the “Synergy Score growth inhibition” value came to 10.4 in experiment [1], 1.53 in experiment [2], 5.85 in experiment [4] and 4.50 in experiment [5]. Besides, the “Synergy Score inhibition” value in experiment [1] stood at 3.23; in experiment [2], 1.25; in experiment [3], 0.82; in experiment [4], 1.94; in experiment [5], 1.50.

(Values after US11147818B2, “Combination therapies” (Infinity Pharmaceuticals, Inc., priority 2016, dated 2021).)
